Measured values: patent US20050170359A1, “Treatment of vascular dysfunction and alzheimer's disease” (priority 2002, published 2005)
“Also recorded” adds a separate entry of the source. Peptide text beside a SMILES is read from it. * marks the point of attachment. Cbz = O=C(OCc1ccccc1)*; CH2F = FC*

Assays:
SIPS BEC = experiment: Capillary morphogenesis in 3-D collagen gels by H2O2 stress-induced premature senescence (SIPS) BEC; assay type: cell-based, human
Protocol: The 3-D system has been described in detail by Davis et al. (J. Cell Sci. 114:917-930, 2001). Here, the system was used to assay the responsiveness of AD BEC and SIPS BEC to angiogenic stimulation. Briefly, 10^6 MBEC/ml were suspended within 3-D collagen matrices at 25 μl per well in the serum-free culture medium 199 containing VEGF (40 ng/ml) and bFGF (40 ng/ml) in 5% CO2 at 37° C. The cells were fixed with 3% glutaraldehyde in phosphate buffered saline. The sections were stained with hematoxylin/eosin and Hoechst 33342. The formation of intracellular vacuoles (stage I), tubules (stage II), and multicellular tubes and networks (stage III) were determined at 4 hr to 16 hr and 24 hr, respectively. The number of apoptotic cells were determined between 4 hr and 24 hr using double TUNEL/Hoechst staining. At least 200 cells were evaluated from an individual well. […] was quantified at 200 X magnification by counting four fields derived from triplicate wells. Subconfluent BEC cultures (34 days after subculture) were treated with H2O2 by adding it to the culture medium for 2 hr. To induce senescence, sublethal doses of H2O2 were determined and selected. […] H2O2-treated cells were subcultured and analyzed after 1, 2, 3, 4, 5, 6, 24, 48, 72, 96 and 120 hr for expression of different proteins involved in the cell cycle regulation and apoptosis. […]

BEC = experiment: H2O2 model of stress-induced premature senescence in young human BEC; assay type: cell-based
Protocol: Subconfluent BEC cultures (34 days after subculture) were treated with H2O2 by adding it to the culture medium for 2 hr. To induce senescence, sublethal doses of H2O2 were determined and selected. After treatment, cells were washed with PBS (37° C.) before harvesting, subculturing or incubating with a fresh medium or 3-D collagen gels. H2O2-treated cells were subcultured and analyzed after 1, 2, 3, 4, 5, 6, 24, 48, 72, 96 and 120 hr for expression of different proteins involved in the cell cycle regulation and apoptosis. Cells in 60 mm dishes were lysed in SDS sample buffer directly. For Western blot analysis, proteins were separated by SDS-PAGE and transferred to PVDF membrane followed by incubation with different primary antibodies (see antibodies for.Western blot analysis). SIPS BEC were also prepared for microarray analysis on U95A chips as described above.

AD BEC [1] = experiment: Tube formation in 2-D collagen matrigels, AD BEC; assay type: cell-based, human; details: 10 μM
Protocol: AD or age-matched control (AMC) BEC (2×10^4 cells/well) were plated in 2-D collagen matrigels (growth factors per BD Biosciences, Bedford, Mass.) and treated with 100 nM APC or vehicle (−APC). Total tube length was determined at 24 hr (FIG. 6A). Mean±s.e., n=30 to 40 assays per group from four AD and three AMC cases. AD or AMC BEC were treated with 100 nM APC, 100 nM boiled (B) APC, 100 nM serine mutant (M) APC, or vehicle (−APC) for 24 hr. Total tube length was determined at 24 hr (FIG. 6B). Mean±s.e., n=10 assays per group from one AD and one AMC case. % TUNEL-positive BEC at 4 hr during AD-mediated or AMC-mediated capillary morphogenesis in the presence of 100 nM APC or vehicle (−APC) was calculated (FIG. 6C). Mean±s.e., n=20 assays per group from two AD and two AMC cases. % Caspase-3-positive BEC at 4 hr of brain capillary morphogenesis in AD or AMC treated with 100 nM APC or vehicle (−APC) was calculated (FIG. 6D). Mean±s.e., n=20 assays per group from two AD and two AMC cases. AD BEC (3×10^4) cells were assayed for migration in a modified Boyden chamber in the presence of vehicle (−APC), 100 nM APC, anti-APC C3 monoclonal antibody (200 μg/ml), or anti-APC+APC after 6 hr of incubation (FIG. 6E). Mean±s.e., n=6 assays per group from two AD cases. […]

AMC BEC = experiment: Tube formation in 2-D collagen matrigels, age-matched control BEC; assay type: cell-based, human; details: 10 μM
Protocol: In 3D collagen gels (as described in FIG. 1), BEC that reached greater than 90% replicative senescence (RS) or were exposed to H2O2 (SIPS) formed an insignificant number of tubes (FIGS. 11A-11B, bar=50 μm). Total tube length—control BEC (arbitrarily taken as 100%) were compared to RS and SIPS BEC (FIG. 11C). The effect of SB202190 (SB, 10 μM for 1 hr) on SIPS-induced aberrant angiogenesis. Mean±s.e., n=9 assays per group from three different cases/group. In 2D collagen matrigels (growth factors per BD Biosciences, Bedford, Mass.), SB202190 (SB, 10 μM) increased the number of tubes in early passage AD BEC (FIGS. 11D-11E, bar=50 μm). SB202190 (SB, 10 μM) increases total tube length in both AMC and AD BEC (FIG. 11F). Mean±s.e., n=6-9 assays per group from two AMC and three AD cases.
In the 2-D system, collagen matrigels of matrix composition containing a supplement of growth factors were used according to manufacturer's instructions (BD Biosciences, Bedford, Mass.). In the 2-D matrix system, 2×10^4 cells/well were plated.
(§1) ZVAD-fmk (50 μM, Sigma), p38 MAPK antagonists including SB SB202190 (SB, 10 μM), and plasma-derived activated protein C (APC, prepared by Dr. J. H. Griffin's laboratory, 5-100 nM) were used.

AD BEC [2] = experiment: Brain capillary morphogenesis in 3-D collagen matrices (VEGF/bFGF) mediated by AD BEC; assay type: cell-based, human; details: zVAD-fmk 50 μM, 24 hr, VEGF and bFGF 40 ng/ml
Protocol: (§2) The 3-D system has been described in detail by Davis et al. (J. Cell Sci. 114:917-930, 2001). Here, the system was used to assay the responsiveness of AD BEC and SIPS BEC to angiogenic stimulation. Briefly, 10^6 MBEC/ml were suspended within 3-D collagen matrices at 25 μl per well in the serum-free culture medium 199 containing VEGF (40 ng/ml) and bFGF (40 ng/ml) in 5% CO2 at 37° C. The cells were fixed with 3% glutaraldehyde in phosphate buffered saline. The sections were stained with hematoxylin/eosin and Hoechst 33342. The formation of intracellular vacuoles (stage I), tubules (stage II), and multicellular tubes and networks (stage III) were determined at 4 hr to 16 hr and 24 hr, respectively. The number of apoptotic cells were determined between 4 hr and 24 hr using double TUNEL/Hoechst staining. At least 200 cells were evaluated from an individual well. […] was quantified at 200 X magnification by counting four fields derived from triplicate wells.
as §1

caspase 3 = experiment: Western blot of activated caspase-3 in AD BEC lysates during capillary morphogenesis; assay type: cell-based, human; details: zVAD-fmk 50 μM, 24 hr
Protocol: Cell lysates were prepared from subconfluent BEC cultures, BEC at different stages of capillary morphogenesis or BEC exposed to SIPS (see below H2O2 model of SIPS). Antibodies for Western blot analysis included caspase 3, rabbit anti-human polyclonal, 1:100 (0.5 mg/ml, BD PharMingen); p53, mouse anti-human monoclonal, 1:200 (0.1 mg/ml, Oncogene); p16, mouse anti-human monoclonal, 1:250 (0.5 mg/ml, BD ParMingen); p21, mouse anti-human, 1:200 (0.4 mg/ml, Oncogene); Rb (Santa Cruz), p27 (Santa Cruz), fibronectin (Santa Cruz), PAI-1 (Santa Cruz) or phosphorylated p38 MAPK; gax, rabbit polyclonal against C-terminal region of the rat gax protein (amino acids SDHSSEHAHL), 1:500 (7 mg/ml, provided by Dr Kenneth Walsh); and β-actin, goat anti-human polyclonal, 1:2,500 (0.2 mg/ml, Santa Cruz Biotechnology). The secondary antibody was HRP-conjugated and peroxidase activity was detected with enhanced chemiluminescence detection kit (ECL, Pierce). The relative abundance of the primary antigen was determined by scanning densitometry using β-actin as an internal control.

AD BEC [3] = experiment: Apoptosis (TUNEL, caspase-3 positive cells) during AD BEC-mediated capillary morphogenesis; assay type: cell-based, human
Protocol: as §2
Staining with APO-BRDU kit was performed according to manufacturer's instructions (Phoenix Flow Systems).

## OO [H2O2]
SIPS BEC; compared to untreated normal control cells
  number of tubes formed by H2O2-treated (SIPS) BEC: form an insignificant number of tubes
BEC; 300 μM for 2 hr, within 48 hr
  senescent phenotype (G1 arrest, flattened morphology, SA-β-gal): developed a senescent phenotype
BEC; concentrations higher than 300 μM, not shown
  BEC apoptosis: resulted in BEC apoptosis

## Oc1ccc(-c2nc(-c3ccncc3)c(-c3ccc(F)cc3)[nH]2)cc1 [SB202190]
AD BEC [1]
  number of tubes in early passage AD BEC: completely restored; also recorded: increased
  total tube length, AD BEC: increases
AMC BEC
  total tube length, AMC BEC: increases
SIPS BEC; preincubation 10 μM for 1 hr, 3D collagen gels
  augmentation of total tube length in the SIPS model: ~5 fold

## COC(=O)C[C@H](NC(=O)[C@H](C)NC(=O)[C@@H](NC(=O)OCc1ccccc1)C(C)C)C(=O)CF [zVAD-fmk] (Cbz-Val-Ala-Asp(OMe)-CH2F)
AD BEC [2]
  number of tubes: restored
  total tube length: restored
AD BEC [2]; listed as zVAD
  number of tubes: restoration
  total tube length: restoration
Caspase 3
  levels of activated form of caspase-3: preventing the formation of the active form of caspase 3; also recorded: reduced
AD BEC [3]; during AD BEC-mediated capillary morphogenesis
  apoptosis in AD BEC: prevents apoptosis
AD BEC [3]; zVAD, data not shown
  number of apoptotic AD BEC by TUNEL staining: decreased
